Reference: publication PMC12147183, “Lacritin cleavage-potentiated targeting of iron - respiratory reciprocity promotes bacterial death” (The Journal of Biological Chemistry, 2025)
Peptide text beside a SMILES is read from it.

What was measured:
His-tagged FeoB = His-tagged FeoB binding to peptide columns; set-up: species or system P. aeruginosa PAO1; settings: step gradient 0.3, 0.5, 1.0 M KCl, 0.05% dodecyl-β-D-maltopyranoside, 4 °C, anti-His Western blot, n = 3
Experimental: (§1) We used the pFeoB plasmid ([6]) with feoB insert from P. aeruginosa PAO1 in pET41-a(+) with a C-terminal 8-His tag and kanamycin-resistant cassette, and E. coli EcCD00397460 plasmid (DNASU Plasmid Repository, Tempe Arizona) with potH insert in PCDF Bravo with C-terminal 10-His tag and streptomycin-resistant cassette. Plasmids of each were generated using standard procedures. His-tagged FeoB or PotH proteins in the supernatant were captured on Ni-Sepharose for 4 h with end-over-end rotation at 4 °C, washed with 10 mM HEPES potassium salt, 10% glycerol, 0.5 M NaCl, 10 mM MgSO4, 10 mM imidazole, and 0.05% dodecyl-β-D-maltopyranoside and eluted with the same wash buffer but containing 0.2 M NaCl and 0.5 M imidazole. Eluted FeoB and PotH were concentrated into 10 mM HEPES potassium salt, 10% glycerol, 10 mM MgSO4, 0.05% dodecyl-β-D-maltopyranoside and 0.15 M NaCl respectively on Amicon Ultra-0.5 Centrifugal UFC505024, UFC503024 and UFC900596 filter units.
(§2) N-104 and C-95 columns (1 ml each) equilibrated in 10 mM HEPES potassium salt, 10% glycerol, 10 mM MgSO4, 0.05% dodecyl-β-D-maltopyranoside, and 0.15 M NaCl were individually mixed at 4 °C overnight with purified FeoB and PotH. […]

His-tagged PotH = target: T1, His-tagged PotH (Escherichia coli, UniProt P31135); assay: His-tagged PotH binding to peptide columns; set-up: species or system E. coli; settings: step gradient 0.3, 0.5, 1.0 M KCl, 0.05% dodecyl-β-D-maltopyranoside, 4 °C, anti-His Western blot, n = 3
T1 construct: host or cells: legend says PA14
Experimental: as §1, §2

Fe^2+ uptake by PA14 = type: cell-based, Pseudomonas aeruginosa
Experimental: Iron depletion was induced in PA14 cells (5 × 10^9 cfu in 10 ml 10 mM Na2HPO4, 1.8 mM KH2PO4, 2.7 mM KCl, 137 mM NaCl (pH 7.2) by treatment with the chelator 1 mM 2,2′-bipyridyl at room temperature for 1 h. After washing twice with 0.9% NaCl, cells were suspended in 1 ml of 1 mM Na2HPO4, 0.18 mM KH2PO4, 0.27 mM KCl, 13.7 mM NaCl for treatment without or with 1, 10, 25, 50 or 100 μM of N-104 (or negative control N-80/C-25 or C-95) for 45 min at 35 °C, incubated at the same temperature for 15 min with 100 μM FeSO4 and 13 mM ascorbic acid, washed twice with 1 mM Na2HPO4, 0.18 mM KH2PO4, 0.27 mM KCl, and 13.7 mM NaCl, and pelleted at 12,000g. The ferrozine assay ([54]) was subsequently employed. Briefly, cells in pellets were lysed with 20 μl of 50 mM NaOH, partially neutralized with 20 μl of 10 mM HCl, subjected to iron release with 20 μl of acidified 0.29 M KMnO4 for 30 min at 80 °C, cooled to room temperature, incubated with 7 μl of 30 mM ferrozine, 1.1 μl of 180 mM neocuproine, 15 μl of 5 M ammonium acetate and 15 μl of 1 M ascorbic acid for 30 min at room temperature and then centrifuged at 21,000g for 10 min. Cellular iron uptake could then be assessed from the supernatant OD565. Single-molecule transport per cell was estimated using a standard curve.

GKY20 = GKY20 (Homo sapiens, UniProt P00734); assay: Dot blot binding assay on immobilized GKY20; settings: 20 μM peptide, 2 h at 35 °C, LI-COR detection
Experimental: After washing three times for 10 min, each with 10 ml of 10 mM Na2HPO4, 1.8 mM KH2PO4, 2.7 mM KCl, 137 mM NaCl (pH 7.2), nitrocellulose membranes were incubated overnight at 4 °C with 1 μg/ml of either rabbit polyclonal ab-C-term with specificity for the C-terminal 54 amino acids of lacritin ([86]) appropriate for N-104 or its analogs, or with rabbit anti-lacritin N-terminus antibody ab-N-term appropriate for C-95. Membranes washed three times for 10 min each with 10 ml of 10 mM Na2HPO4, 1.8 mM KH2PO4, 2.7 mM KCl, 137 mM NaCl (pH 7.2), were then incubated with 0.1 μg/ml of IRDye 680RD labeled donkey antirabbit IgG (926-68073, LI-COR) as described above for LI-COR Odyssey CLx detection.

T1 sequence (P31135 whole entry): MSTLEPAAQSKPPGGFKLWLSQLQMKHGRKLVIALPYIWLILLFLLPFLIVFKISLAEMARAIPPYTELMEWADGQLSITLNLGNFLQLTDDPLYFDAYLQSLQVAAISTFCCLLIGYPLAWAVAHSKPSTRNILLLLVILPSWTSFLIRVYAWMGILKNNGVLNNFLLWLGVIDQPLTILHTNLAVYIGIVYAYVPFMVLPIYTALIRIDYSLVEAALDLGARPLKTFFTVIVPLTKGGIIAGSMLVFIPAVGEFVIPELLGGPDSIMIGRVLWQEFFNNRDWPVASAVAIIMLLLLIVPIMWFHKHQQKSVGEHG

Row | Compound | KCl elution of His-FeoB from immobilized peptide (His-tagged FeoB) | KCl elution of His-PotH from immobilized peptide (His-tagged PotH) | effect on exogenous Fe^2+ uptake (Fe^2+ uptake by PA14; 1 to 100 μM peptide) | binding to nitrocellulose-immobilized GKY20 (GKY20) | IC50 (Fe^2+ uptake by PA14; 1 h) [µM]
1 | C[C@H](NC(=O)CNC(=O)[C@@H](NC(=O)[C@H](CO)NC(=O)[C@H](CC(=O)O)NC(=O)[C@H](CO)NC(=O)[C@H](CO)NC(=O)[C@H](C)NC(=O)[C@H](CC(=O)O)NC(=O)[C@@H](N)CCC(=O)O)[C@@H](C)O)C(=O)N[C@@H](CC(=O)O)C(=O)N1CCC[C@H]1C(=O)N[C@@H](C)C(=O)N[C@@H](CCC(N)=O)C(=O)N[C@@H](CCC(=O)O)C(=O)N[C@@H](C)C(=O)NCC(=O)N[C@H](C(=O)N[C@@H](CO)C(=O)N[C@@H](CCCCN)C(=O)N1CCC[C@H]1C(=O)N[C@@H](CC(N)=O)C(=O)N[C@@H](CCC(=O)O)C(=O)N[C@@H](CCC(=O)O)C(N)=O)[C@@H](C)O [C-95, reference compound] (H-EDASSDSTGADPAQEAGTSKPNEE-NH2) | lacked | lacked | had no effect | Only N-104 bound to GKY20 | –
2 | CC(=O)N[C@@H](C)C(=O)N[C@@H](CCC(N)=O)C(=O)N[C@@H](CCCCN)C(=O)N[C@@H](CC(C)C)C(=O)N[C@@H](CC(C)C)C(=O)N[C@@H](CCCCN)C(=O)N[C@@H](CCCCN)C(=O)N[C@@H](Cc1ccccc1)C(=O)N[C@@H](CO)C(=O)N[C@@H](CC(C)C)C(=O)N[C@@H](CC(C)C)C(=O)N[C@@H](CCCCN)C(=O)N1CCC[C@H]1C(=O)N[C@@H](Cc1c[nH]c2ccccc12)C(=O)N[C@@H](C)C(=O)O [N-104] (Ac-AQKLLKKFSLLKPWA-OH) | eluted with 0.5 and 1 M but not 0.3 M KCl | eluted with 0.5 and 1 M but not 0.3 M KCl | – | bound to GKY20 | 10
